The text below walks through data of PubChem BioAssay (NCI).

Holding throughout (assay): NCI tumour cell line growth inhibition, 48 h
The subject of experiment [1] is UO-31 renal.
For experiment [2], the system named is CCRF-CEM leukemia.
Experiment [3] has as its system MDA-N.
In experiment [4] the test system is T-47D breast.
The subject of experiment [5] is NCI-H226 lung.
In experiment [6] the test system is M14 melanoma.
Experiment [7] concerns PC-3 prostate.
The subject of experiment [8] is SW-620 colon.
The test system of experiment [9] is 786-0 renal.
The subject of experiment [10] is UACC-257 melanoma.
The test system of experiment [11] is NCI-H23 lung.

Where “and” joins values, the source holds several entries; their conditions need not be identical. Identical values can stand only once.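 Interpolation was linear, between the two tested concentrations surrounding the appropriate level; five concentrations were tested over 48 hours in 96-well plates. GI50 = concentration required for 50% inhibition of growth. Definition used: TGI = concentration required for complete inhibition of growth.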

As to `[N-]=[N+]=NC1OC(=O)C(Cl)=C1N=P(c1ccccc1)(c1ccccc1)c1ccccc1` (stereo not drawn), the TGI in experiment [1], in experiment [2], in experiment [3], in experiment [4], in experiment [5] and in experiment [6] was over 10 µM throughout. For the same compound, the TGI in experiment [7], in [8], in [9] and in experiment [10] was over 10 µM throughout.

In the case of `Cc1ccc(NC=O)c(-c2c(N)[nH]c(=S)[nH]c2=O)c1`, the TGI in experiment [1], in experiment [11], in [2], in experiment [3], in experiment [4] and in experiment [5] was over 100 µM throughout. Further, the TGI in [6], in [8], in experiment [9] and in experiment [10] was over 100 µM each time.

Turning to `O=C1/C(=C\c2cccc(Oc3ccccc3)c2)SC(c2ccccc2)N1c1ccccc1` (stereo not drawn), the TGI in [1] was over 100 µM; in experiment [11] it was over 100 µM; in experiment [2] it was 86.4 µM; in experiment [3] it was 97.9 µM; in experiment [4], over 100 µM; in experiment [5] it was over 100 µM. For the same compound, the TGI in experiment [6], in experiment [8], in experiment [9] and in experiment [10] was over 100 µM each time.

As for `CCN1CCC(O)(c2ccc(Oc3ccc(F)cc3)cc2)C(C(=O)c2ccc(Oc3ccc(F)cc3)cc2)C1` (stereo not drawn), the TGI in [11] was found to be 28 µM; in [2] it was 28.1 µM; in experiment [3], 30.6 µM; in experiment [4], 30.9 µM; in experiment [5] it was 29.5 µM; in experiment [6], 30.9 µM. In addition, the TGI in experiment [7] was found to be 26.4 µM; in experiment [8], 30.3 µM; in [9], 26.4 µM; in experiment [10] it was 29.8 µM.

Consider `CN(Cc1cnc2nc(N)nc(N)c2n1)c1ccc(C(=O)N[C@@H](CCC(=O)O)C(=O)O)cc1`, for which the GI50 was 0.0454 µM in experiment [1]; 0.0289 µM and 0.0122 µM in experiment [3]; 1.89 µM in experiment [10]. Moreover, the TGI in [1] is 148 µM; in [11] it was 117 µM; in experiment [3] it was over 250 µM; in [4] it was over 250 µM; in experiment [5], 242 µM and > 250 µM; in experiment [6], 240 µM and > 250 µM. Also, the TGI is over 250 µM in experiment [7]; 221 µM and > 250 µM in [8]; over 250 µM in experiment [9]; over 237 µM in [10].

On to `O=C1c2cc(Cl)ccc2NC(=NC2CCCC2)C2CSCN12` (stereo not drawn), for which the TGI in experiment [1], in [2], in experiment [3], in [4], in [5] and in experiment [6] was over 100 µM each time. Further, the TGI in experiment [7], in experiment [8], in experiment [9] and in experiment [10] was over 100 µM each time.

Regarding `CO/N=C(/C)c1cccc(Nc2nc3ccccc3c3[nH]c4ccccc4c23)c1`, the TGI in experiment [1] was 22.1 µM; in [11], 23.1 µM; in experiment [3], 20.4 µM; in experiment [4] it was 6.9 µM; in experiment [5] it was 33.2 µM; in [6] it was 21.1 µM. Also, the TGI is 22.3 µM in [7], 27.5 µM in experiment [8], 21.5 µM in experiment [9] and 26.5 µM in experiment [10].

`O=C1C(Br)=C(c2ccccc2)O/C1=C/C(=O)c1ccc(Br)cc1`: the TGI in experiment [1], in experiment [11], in experiment [2], in experiment [3], in experiment [4] and in experiment [5] was over 100 µM in each case. The TGI in experiment [6] is over 100 µM; in experiment [7] it was 53.3 µM; in [8], 47.3 µM; in experiment [9], 47 µM.

In the case of `CC(C)(C)OC(=O)NC1CC2(C=C(Br)C(=O)C(Br)=C2)OC1=O` (stereo not drawn), the TGI in experiment [1] was 13.8 µM; in [11], 22 µM; in experiment [3] it was 15.3 µM; in experiment [4], 6.39 µM; in experiment [5], 40.6 µM; in experiment [6] it was 20.2 µM. In addition, the TGI in [7] stood at 27.3 µM; in experiment [8], 5.79 µM; in experiment [9], 7.5 µM; in experiment [10], 13 µM.

With `O=C(O)CCC(=O)c1ccc2c(c1)C(C(=O)O)CC2` (stereo not drawn), the TGI in [1], in [11], in experiment [3], in experiment [4], in experiment [5] and in experiment [6] was over 100 µM in each case. In addition, the TGI in [7], in experiment [8], in experiment [9] and in experiment [10] was over 100 µM throughout.

As to `Cc1ccc(SC2C(=O)C3CC(OCc4ccccc4)C2(C)C3(C)C)cc1` (stereo not drawn), the TGI in [1], in experiment [11], in [2], in [3], in experiment [4] and in experiment [5] was over 100 µM throughout. The TGI in [6], in experiment [7], in experiment [8] and in [9] was over 100 µM throughout.

Turning to `O=S(=O)(O)c1cc(N=Nc2c(O)ccc3ccccc23)ccc1/C=C/c1ccc(N=Nc2c(O)ccc3ccccc23)cc1S(=O)(=O)O`, the TGI in experiment [1], in experiment [11], in experiment [3], in [4], in [5] and in experiment [6] was over 100 µM throughout. Moreover, the TGI in [7], in experiment [8], in experiment [9] and in [10] was over 100 µM in each case.

As for `COC(CN(C(C)=O)C1CCC2(SCCS2)c2[nH]c3ccccc3c21)OC` (stereo not drawn), the TGI in [1], in [11], in experiment [2], in experiment [3], in experiment [5] and in [6] was over 100 µM throughout. In addition, the TGI is over 100 µM in [7], over 100 µM in [8], over 100 µM in experiment [9] and 3.36 µM in experiment [10].
